In publication PMC11329504, “Identification of novel small molecule-based strategies of COL7A1 upregulation and readthrough activity for the treatment of recessive dystrophic epidermolysis bullosa” (Scientific Reports, 2024):
Blank lines part the entries; values can stand above or below the molecule they belong to.

Tests used:
[1] = test system: total (truncated + full length) C7 in RDEB_L1 cells; experiment: AlphaLISA quantification of total C7 in RDEB_L1 cells; assay type: cell-based, human; conditions: 20 ng/mL TGFß2; for EC50: Homo sapiens, total C7 AlphaLISA, 48 h, mean ± SD, read-out: Increase in C7 levels EC50(rel)
Protocol: (§1) The AlphaLISA assay was developed in-house by using the biotin-conjugated rabbit polyclonal antibody anti-C7 (LSBio LS-298147) and conjugating the acceptor beads (PerkinElmer 6772001) to a monoclonal anti-Collagen type VII antibody produced in mouse, clone LH7.2 (Thermo MA5-13,432). Formulation of the mAb clone LH7.2 was exchanged to PBS and concentrated 5 × by using Amicon® Ultra-0.5 centrifugal filters up to 1 mg/ml. The conjugation procedure was carried out according to the protocol provided by PerkinElmer.
(§2) For compound treatment in RDEB patient-derived transformed keratinocytes, 5,000 cells were plated in 20 µL of supplemented KGM media containing 20 ng/mL TGFβ2 (SIGMA GF113) without GA-1000 in 384-well cell culture plates (Greiner 781098). The day after, 5 µL of test compounds prepared 5 × in supplemented KGM without GA-1000 were added over cells and incubated for 48 h at 37 °C and 5% CO2. For compound treatment in HEK293^R578X, 10,000 cells were plated in 20 μL of DMEM (High Glucose, 2 mM L-Glutamine, sodium pyruvate, and FBS 10%) in 384-well cell culture plates (Greiner 781,098,). The day after, 5 μL of test compounds prepared 5 × in DMEM complete medium were added over cells and incubated for 48 h at 37 °C and 5% CO2.
(§3) After the treatment process, 2.5 µL of RIPA buffer 10 x (Abcam ab156034) were added over the […] of cells for 20 min at room temperature to obtain a complete cell lysis. Then, 2 μL of sample (i.e., cell lysate with supernatant) were transferred to the AlphaLISA plate (PerkinElmer 6,059,340) containing […] of antibodies mixture ([…] of acceptor Beads-Ab and […] of biotin-rAb) prepared in AlphaLISA buffer 1 x (PerkinElmer AL00F). The reaction was incubated for 90 min at room temperature. Finally, 10 μL of […] of donor beads (PerkinElmer 6760002,) were added to the reaction under subdued light, mixed gently, and incubated for 3 h at room temperature. AlphaLISA signal was detected with an Envision microplate reader (Perkin Elmer) using the following setting: Filter: AlphaScreen, Excitation time: 180 ms, Integration time: 300 ms.
(§4) Statistical analyses were performed using GraphPad Prism v. 7.04 (La Jolla, California). Results are shown as mean ± SD of experimental replicates. Dose–response curves to assess compound treatment effect were plotted in a four-parameter logistic model. Relative EC50, representing the total drug concentration producing a 50% effect, was calculated in the four-parameter logistic equation. Comparisons of collagen protein and mRNA expression in different experimental conditions were made using ANOVA, followed by a post hoc test. statistical significance was considered with p values < 0.05.

[2] = test system: truncated and full-length C7 in RDEB_L1, RDEB_L5 and HEK293^R578X cells; experiment: Western blot detection of truncated and full-length C7; assay type: cell-based, human; conditions: RDEB_L1 and HEK293^R578X cells; 50 μM compound 7, 50 μM chuangxinmycin, 100 μM 3-methyl-chuangxinmycin
Protocol: For western blot, RDEB or normal human keratinocytes were lysed in protein extraction buffer (50 mM Tris–HCl [pH 7.5], 100 mM NaCl, 1% Nonidet P-40, and 4 mM EDTA) containing proteinase inhibitors cocktail (Complete Mini, EDTA free; Roche Diagnostics, Mannheim, Germany). Lysates were incubated for 30 min on ice and centrifuged at 15,000 g for 30 min at 4 °C. Supernatants were then collected and concentrated by ultrafiltration using Amicon Ultra columns (10 kDa; Millipore, Ireland). Protein concentrations were measured using the Bradford assay (Bio-Rad, Hercules, CA). For each sample, […] total protein was resolved on NuPAGE Novex 3%–8% Tris–Acetate gel electrophoresis (Invitrogen, Carlsbad, CA) and electrotransferred to nitrocellulose membranes (Invitrogen, Carlsbad, CA). For type VII collagen analysis, blots were probed with a monospecific polyclonal anti-C7 antibody (a generous gift from Dr. A. Nystrom, University of Freiburg). Invitrogen anti-MDH1 polyclonal antibody (PA550446, 1:1000) was used to detect MDH1. Standard antibodies against a reference protein were used as a loading control, as indicated. Visualization of the resulting signal was performed by incubating with horseradish peroxidase (HRP)- conjugated anti-rabbit antibody (Amersham, Burlington, MA) and West Pico Chemiluminescent Substrate (Pierce, Rockford, IL).

RDEB_L1 cells = experiment: RNAseq (HTPathwaySeq) transcriptomic profiling, GSEA; assay type: cell-based, human; conditions: 24 h, 20 ng/mL TGFβ2, compound 7 and 8 at the highest concentrations tested of 100 and 300 µM
Protocol: The […]®) analysis was conducted at […], Belgium) using samples provided by Almirall. A total of 376 cell lysate samples representing 4 biological replicates of 94 samples were provided to […] in four 96-well plates. On each 96-well plate, two empty wells were allocated to include […] reference samples. Samples from the same biological group were distributed over the different plates to not confound inter-plate variability with biological signal. […] The compounds were evaluated in RDEB_L1 cells in the presence of 20 ng/mL TGFβ2 to mimic RDEB physiology and in normal human keratinocytes with no TGFβ2 treatment. Cells were treated during 24 h. Controls for RDEB_L1 cells not treated with TGFβ2 and RDEB_L1 and NHK cells treated with DMSO in the absence of compounds were also included. The conditions of the assay were identical to those described for the Real-time quantitative RT-PCR (see above). For the […], over 460 M reads were generated for 376 samples of interest, resulting in about 1.22 M reads per sample on average. […] is based on a 3'-end library preparation method, and gene body read coverage is concentrated towards the 3'-end of the genes. For quality control, a selection of lysate samples was checked for gDNA contamination and RNA content using qPCR before library preparation. RNA samples were processed to generate RNA-sequencing libraries using […] procedure based on the QuantSeq (Lexogen) 3'-end library preparation workflow. The quality of a selection of samples was assessed with the 2100 Bioanalyzer instrument (Agilent). Libraries were quantified using qPCR and pooled for single-end sequencing on a NextSeq 500 (Illumina) according to […] standard operating procedure. Raw reads were mapped to the human genome (hg38) and gene expression was quantified based on the Ensembl transcriptome annotation (version 85) using […]. Raw counts were normalized using […]2 prior to differential gene expression analysis. For each cell line, samples were clustered based on log-transformed normalized counts using tSNE. A perplexity parameter of 35 and a maximum number of 1000 iterations were applied. Genes with more than 10 normalized counts in at least 3 samples were used as input. Analysis was run in R (v3.2) with a fixed seed. […] For each contrast, genes ranked by fold change were used as input. PCA was applied on the fold changes of each compound vs their associated vehicle using the 500 genes with the greatest variance. Arrows connect the different incremental dosages used on each compound to observe their differentiation patterns. Pathway enrichment and PCA were performed using R v.3.2. Pathway enrichment was analyzed with cluster profile package. The procedure followed for the cell treatments of RDEB-L1 and NHEK, was the same as that used in the RT-qPCR study. Cell lysis and sample preparation were conducted according to […] instructions: Plates of treated cells were centrifuged for 5 min at 600 g at 4 °C, and the medium was carefully removed to avoid disturbing the cells. Then, cells were washed in PBS, centrifuged and the PBS was removed again. […] After checking that cells were lysed, the samples were transferred to 96-well PCR plates, and then sealed and stored at -80 °C to be sent to […].

[3] = test system: total C7 in HEK293^R578X cells; experiment: AlphaLISA quantification of total C7 in recombinant HEK293^R578X cells; assay type: cell-based, human; conditions: for Increase in C7 levels Emax, % vs baseline: at 100 µM
Protocol: as §1, §2, §3, §4

[4] = test system: total (truncated + full length) C7 in RDEB_L5 cells; experiment: AlphaLISA quantification of total C7 in RDEB_L5 cells; assay type: cell-based, human
Protocol: as §1, §2, §3, §4

NHK cells = experiment: Cytotoxicity, ATP levels, normal human keratinocytes (NHK); assay type: cell-based; conditions: NHK cells, ATP levels, at 50 µM
Protocol: (§5) The viability of RDEB patient-derived cell lines or NHK was evaluated by measuring the ATP levels as an indirect readout of the potential cytotoxicity effect of compounds. Cells were plated and treated exactly with the same conditions as those followed in the AlphaLISA assay, described above. To measure ATP levels, cells were processed using the ATPlite™ 1step luminescence-based assay (PerkinElmer 6,016,731), following the manufacturer’s protocol. 25 μL of ATPlite™ reagent was added directly over cells and plates were covered with a sealing film and shaken for 25 min using a microtiter plate shaker. Luminescence was measured in a Luminoskan Ascent luminometer (Thermo Fisher Scientific). 10 μM of Staurosporine was used as a reference compound and control for the total cytotoxicity.

[5] = as above; assay type: cell-based; conditions: human, normal human keratinocytes (NHK); NHK cells, ATP levels; read-out: Cytotox. IC50
Protocol: as §5

BZD = experiment: Selectivity panel (Eurofins): benzodiazepine receptor BZD; assay type: binding; conditions: Table 5
SAPK2α = biological target: T1, SAPK2α (Homo sapiens, UniProt Q16539); experiment: Selectivity panel (Eurofins): p38/SAPK2α kinase; assay type: biochemical; conditions: Table 5, read-out: Selectivity % inhibition, SAPK2α
T1 construct: Eurofins Pharma Discovery Services

A2A = biological target: T2, A2A (Homo sapiens, UniProt P29274); experiment: Selectivity panel (Eurofins): A2A adenosine receptor; assay type: binding; conditions: Table 5, read-out: Selectivity % inhibition, A2A
T2 construct: Eurofins Pharma Discovery Services
T2 sequence (P29274 whole entry): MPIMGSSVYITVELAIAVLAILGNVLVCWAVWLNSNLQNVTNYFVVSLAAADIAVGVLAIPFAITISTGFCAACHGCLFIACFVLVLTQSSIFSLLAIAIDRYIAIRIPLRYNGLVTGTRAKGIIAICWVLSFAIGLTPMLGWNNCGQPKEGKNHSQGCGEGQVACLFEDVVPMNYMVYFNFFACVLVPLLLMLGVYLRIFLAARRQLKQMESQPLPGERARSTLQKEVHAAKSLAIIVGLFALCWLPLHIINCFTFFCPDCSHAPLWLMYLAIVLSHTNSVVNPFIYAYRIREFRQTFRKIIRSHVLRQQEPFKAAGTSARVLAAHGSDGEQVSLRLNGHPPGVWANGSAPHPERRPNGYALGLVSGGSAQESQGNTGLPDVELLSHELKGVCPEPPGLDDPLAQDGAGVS

T1 sequence (Q16539 whole entry): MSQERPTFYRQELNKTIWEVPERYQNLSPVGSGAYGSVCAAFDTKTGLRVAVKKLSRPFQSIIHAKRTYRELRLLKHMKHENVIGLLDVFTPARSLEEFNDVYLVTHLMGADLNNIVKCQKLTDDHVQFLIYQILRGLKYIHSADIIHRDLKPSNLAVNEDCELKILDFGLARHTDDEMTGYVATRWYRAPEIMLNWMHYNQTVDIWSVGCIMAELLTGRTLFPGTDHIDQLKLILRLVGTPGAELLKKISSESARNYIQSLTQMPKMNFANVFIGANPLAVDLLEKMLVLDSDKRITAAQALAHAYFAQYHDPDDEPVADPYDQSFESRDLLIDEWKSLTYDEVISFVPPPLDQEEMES

EC50 ([1]; RDEB_L1 cells): 42 µM
SMILES: CC1(C)c2c[nH]c3cccc(c23)S[C@H]1C(=O)O [3-methyl chuangxinmycin, 3-methyl-chuangxinmycin]
Increase in C7 levels Emax, % vs baseline ([1]; RDEB_L1 cells, at 100 µM): 105 ± 13 at 100 % vs baseline
C7 products induced, western blot [2]: partially upregulated full-length C7
modulation of GO terms related to NMD, readthrough, translation and unfolded protein response (RDEB_L1 cells): Neither compound 1 nor chuangxinmycin nor 3-methyl-chuangxinmycin showed any impact on these pathways
EC50 ([3]; Homo sapiens, total C7 AlphaLISA, 48 h, relative EC50, mean ± SD, read-out: Increase in C7 levels EC50): 4.6 µM
Increase in C7 levels Emax, % vs baseline [3]: 58 at 100 % vs baseline

SMILES: C[C@H]1c2c[nH]c3cccc(c23)S[C@H]1C(=O)O [Chuangxinmycin, chuangxinmycin]
Increase in C7 levels Emax, % vs baseline ([1]; RDEB_L1 cells, at 50 µM): 22 ± 3 at 50 % vs baseline
C7 products induced, western blot [2]: partially upregulated full-length C7
modulation of GO terms related to NMD, readthrough, translation and unfolded protein response (RDEB_L1 cells): Neither compound 1 nor chuangxinmycin nor 3-methyl-chuangxinmycin showed any impact on these pathways

EC50 ([1]; RDEB_L1 cells): 1.9 ± 0.12 µM
EC50 ([4]; Homo sapiens, total C7 AlphaLISA, 48 h, 20 ng/mL TGFß2, relative EC50, mean ± SD, read-out: Increase in C7 levels EC50): 3.1 ± 0.008 µM
SMILES: Nc1ncc(-c2ccc3cnn(CCO)c3c2)nc1C(=O)NC1C2CC3CC1CC(O)(C3)C2 (centres unmarked) [Compound 3]
Increase in C7 levels Emax, % vs baseline ([1]; RDEB_L1 cells, at 3.1 µM): 2083 ± 29 at 3.1 % vs baseline
Increase in C7 levels Emax, % vs baseline ([4]; at 1.25 µM, 20 ng/mL TGFß2): 717 ± 229 at 1.25 % vs baseline
Cytotox. % inhibition of viability (NHK cells): 58% ± 13 at 50 (n=2)

EC50 ([1]; RDEB_L1 cells): 40 ± 13 µM
SMILES: C#Cc1nc(-c2ccncc2)c(-c2ccco2)nc1N [Compound 8]
Increase in C7 levels Emax, % vs baseline ([1]; RDEB_L1 cells, at 100 µM): 86 ± 13.9 at 100 % vs baseline
IC50 [5]: 31 ± 4.1 µM
modulation of GO terms related to NMD, readthrough, translation and unfolded protein response (RDEB_L1 cells): modulating genes specifically related to cytoplasmic translation and the ribosome
Increase in C7 levels Emax, % vs baseline [3]: 10± 13 at 100 % vs baseline

Selectivity % inhibition, BZD (BZD; at 3 μM): 0%
Selectivity % inhibition, BZD (BZD; at 10 μM): 0%
Selectivity % inhibition, BZD (BZD; at 30 μM): 9%
inhibition at 3 µM (SAPK2α; at 3 μM): 36%
inhibition at 10 µM (SAPK2α; at 10 μM): 162%
inhibition at 30 µM (SAPK2α; at 30 μM): 88%
inhibition at 3 µM (A2A; at 3 μM): 104%
inhibition at 10 µM (A2A; at 10 μM): 103%
inhibition at 30 µM (A2A; at 30 μM): 104%
SMILES: Nc1cnc(-c2ccncc2)c(-c2cccc(F)c2)n1 [Compound 10]
Increase in C7 levels Emax, % vs baseline ([1]; Table 5 SAR, at 50 μM): 2.1 ± 16 at 50 % vs baseline
